Source: patent US20260297092A1, “PYRAZOLOPYRIMIDINE DERIVATIVES AS INHIBITORS OF NLRP3” (Takeda Pharmaceutical Company Limited, priority 2023, published 2026)
pIC50: −log10 of the molar value.

Columns and labels:
[1] = system: NLRP3 inflammasome (IL-1β production in THP-1 cells); assay: IL-1β TR-FRET Assay (percentage of inhibition at 300 nM, 6 μM or 10 μM); assay type: cell-based, human; conditions: Homo sapiens, LPS priming, ATP activation; for inhibition at 0.3 µM: THP-1, 300 nM, read-out: IL-1β inhibitory rate at 300 nM (%); for inhibition at 6 µM: THP-1, 6 μM, read-out: IL-1β inhibitory rate at 6 μM (%); for inhibition at 10 µM: THP-1, 10 μM, read-out: IL-1β inhibitory rate at 10 μM (%)
Outline: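 Percent inhibition of IL-1β used DMSO wells as 0% and 3 μM MCC-950 wells as full inhibition, with supernatant read by HTRF. Beforehand, IFN-γ-differentiated (25 ng/mL, 24 h), LPS-primed (50 ng/mL, 24 h) THP-1 cells received compound 30 min before inflammasome activation by 20 mM ATP for 2 h.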

[2] = system: TNF-α (NF-κB pathway, THP-1 cells); assay: TNF-α Assay (IC50); assay type: cell-based, human; conditions: Homo sapiens, 600 ng/mL LPS, 3 hours
Outline: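 Supernatant TNF-α quantified by ELISA after 3 h stimulation with 600 ng/mL LPS at 37 °C, following 30 min compound preincubation. Cells: IFN-differentiated (25 ng/mL, 24 h) THP-1 macrophages, 40,000/well, serum-free. IC50 by sigmoidal fit of % inhibition, with TPCA-1 as 100% control.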

SMILES | inhibition at 0.3 µM [1] [%] | pIC50 [2] | inhibition at 6 µM [1] [%] | inhibition at 10 µM [1] [%]
CCOc1nc2nn(-c3ccc(C(F)(F)F)cc3C)cc2c(=O)[nH]1 [Example 69, 6-ethoxy-2-[2-methyl-4-(trifluoromethyl)phenyl]-2,5-dihydro-4H-pyrazolo[3,4-d]pyrimidin-4-one] | 100 | < 4.52 | – | –
Cc1cc(C)c(-n2cc3c(=O)[nH]c(CC4CCCCO4)nc3n2)c(O)c1 (stereo not drawn) [Example 67, 2-(2-hydroxy-4,6-dimethylphenyl)-6-[(oxan-2-yl)methyl]-2,5-dihydro-4H-pyrazolo[3,4-d]pyrimidin-4-one] | 98 | < 4.52 | – | –
CCOc1nc2nn(-c3c(C)cc(OC(F)F)nc3C)cc2c(=O)[nH]1 [Example 226, 2-[6-(difluoromethoxy)-2,4-dimethylpyridin-3-yl]-6-ethoxy-2,5-dihydro-4H-pyrazolo[3,4-d]pyrimidin-4-one] | – | < 4.52 | 106 | –
Cc1cc(C2(F)CC2)cc(C)c1-n1cc2c(=O)[nH]c(COC(F)F)nc2n1 [Example 263, 6-[(difluoromethoxy)methyl]-2-[4-(1-fluorocyclopropyl)-2,6-dimethylphenyl]-2,5-dihydro-4H-pyrazolo[3,4-d]pyrimidin-4-one] | – | < 4.52 | 104 | –
Cc1cc(C)c(-n2cc3c(=O)[nH]c(-c4ccccc4Cl)nc3n2)c(O)c1 [Example 45, 6-(2-chlorophenyl)-2-(2-hydroxy-4,6-dimethylphenyl)-2,5-dihydro-4H-pyrazolo[3,4-d]pyrimidin-4-one] | 100 | < 4.52 | – | –
Cc1cc(C2CC2)cc(C)c1-n1cc2c(=O)[nH]c(O[C@H]3CCOC3)nc2n1 [Example 286, 2-(4-cyclopropyl-2,6-dimethylphenyl)-6-{[(3S)-oxolan-3-yl]oxy}-2,5-dihydro-4H-pyrazolo [3,4-d]pyrimidin-4-one] | – | < 4.52 | 98 | –
Cc1cc(C)c(-n2cc3c(=O)[nH]c(C(C)C)nc3n2)c(O)c1 [Example 10, 2-(2-hydroxy-4,6-dimethylphenyl)-6-(propan-2-yl)-2,5-dihydro-4H-pyrazolo[3,4-d]pyrimidin-4-one] | 98 | < 4.52 | – | –
COc1ccccc1-c1nc2nn(-c3c(C)cc(C)cc3O)cc2c(=O)[nH]1 [Example 47, 2-(2-hydroxy-4,6-dimethylphenyl)-6-(2-methoxyphenyl)-2,5-dihydro-4H-pyrazolo[3,4-d]pyrimidin-4-one] | 98 | < 4.52 | – | –
Cn1ccc(-c2nc3nn(-c4c(F)cc(C5CC5)cc4C(F)F)cc3c(=O)[nH]2)n1 [Example 299, 2-[4-cyclopropyl-2-(difluoromethyl)-6-fluorophenyl]-6-(1-methyl-1H-pyrazol-3-yl)-2,5-dihydro-4H-pyrazolo[3,4-d]pyrimidin-4-one] | – | < 4.52 | 99 | –
Cc1cc(C2CC2)cc(C)c1-n1cc2c(=O)[nH]c(CC#N)nc2n1 [Example 317, [2-(4-cyclopropyl-2,6-dimethylphenyl)-4-oxo-4,5-dihydro-2H-pyrazolo[3,4-d]pyrimidin-6-yl]acetonitrile] | – | < 4.52 | 100 | –
CCOc1nc2nn(-c3c(F)cc(Br)cc3Cl)cc2c(=O)[nH]1 [Example 133, 2-(4-bromo-2-chloro-6-fluorophenyl)-6-ethoxy-2,5-dihydro-4H-pyrazolo[3,4-d]pyrimidin-4-one] | 96 | < 4.52 | – | –
Cc1cc(Cl)ccc1-n1cc2c(=O)[nH]c(C3CCCN(C)C3)nc2n1 (stereo not drawn) [Example 102, 2-(4-chloro-2-methylphenyl)-6-(1-methylpiperidin-3-yl)-2,5-dihydro-4H-pyrazolo[3,4-d]pyrimidin-4-one] | – | < 4.52 | – | 97
CCOc1nc2nn(-c3c(O)cc(C)cc3F)c(C)c2c(=O)[nH]1 [Example 51, 6-ethoxy-2-(2-fluoro-6-hydroxy-4-methylphenyl)-3-methyl-2,5-dihydro-4H-pyrazolo[3,4-d]pyrimidin-4-one] | 100 | < 4.52 | – | –
Cc1cc(C2CC2)cc(C)c1-n1cc2c(=O)[nH]c(C3CC(F)(F)C3)nc2n1 [Example 262, 2-(4-cyclopropyl-2,6-dimethylphenyl)-6-(3,3-difluorocyclobutyl)-2,5-dihydro-4H-pyrazolo[3,4-d]pyrimidin-4-one] | – | < 4.52 | 100 | –
COc1nc2nn(-c3c(C)cc(C4CC4)cc3C)cc2c(=O)[nH]1 [Example 146, 2-(4-cyclopropyl-2,6-dimethylphenyl)-6-methoxy-2,5-dihydro-4H-pyrazolo[3,4-d]pyrimidin-4-one] | 94 | < 4.52 | – | –
CCOc1nc2nn(-c3c(C)cc(F)cc3F)cc2c(=O)[nH]1 [Example 126, 2-(2,4-difluoro-6-methylphenyl)-6-ethoxy-2,5-dihydro-4H-pyrazolo[3,4-d]pyrimidin-4-one] | 51 | < 4.52 | – | –
Cc1cc(C2CC2)cc(C)c1-n1cc2c(=O)[nH]c(C3CC3)nc2n1 [Example 167, 6-cyclopropyl-2-(4-cyclopropyl-2,6-dimethylphenyl)-2,5-dihydro-4H-pyrazolo[3,4-d]pyrimidin-4-one] | 98 | < 4.52 | – | –
Cc1cc(C)c(-n2cc3c(=O)[nH]c(CCC(C)(F)F)nc3n2)c(O)c1 [Example 40, 6-(3,3-difluorobutyl)-2-(2-hydroxy-4,6-dimethylphenyl)-2,5-dihydro-4H-pyrazolo[3,4-d]pyrimidin-4-one] | 100 | < 4.52 | – | –
Cc1ccc(-n2nc3nc(-c4ccccn4)[nH]c(=O)c3c2C)c(O)c1 [Example 124, 2-(2-hydroxy-4-methylphenyl)-3-methyl-6-(pyridin-2-yl)-2,5-dihydro-4H-pyrazolo[3,4-d]pyrimidin-4-one] | 97 | < 4.52 | – | –
Cc1cc(C2CC2)cc(C)c1-n1cc2c(=O)[nH]c(C3(F)CC3)nc2n1 [Example 190, 2-(4-cyclopropyl-2,6-dimethylphenyl)-6-(1-fluorocyclopropyl)-2,5-dihydro-4H-pyrazolo[3,4-d]pyrimidin-4-one] | 97 | < 4.52 | – | –
COCCn1ccc(-c2nc3nn(-c4c(C)cc(C5CC5)cc4C)cc3c(=O)[nH]2)n1 [Example 278, 2-(4-cyclopropyl-2,6-dimethylphenyl)-6-[1-(2-methoxyethyl)-1H-pyrazol-3-yl]-2,5-dihydro-4H-pyrazolo[3,4-d]pyrimidin-4-one] | – | < 4.52 | 95 | –
CCOc1nc2nn(-c3c(C)cc(C4CC4)cc3F)cc2c(=O)[nH]1 [Example 39, 2-(4-cyclopropyl-2-fluoro-6-methylphenyl)-6-ethoxy-2,5-dihydro-4H-pyrazolo[3,4-d]pyrimidin-4-one] | 100 | < 4.52 | – | –
O=c1[nH]c(C2CCOC2)nc2nn(-c3c(F)cc(C4CC4)cc3C(F)F)cc12 (stereo not drawn) [Example 296, 2-[4-cyclopropyl-2-(difluoromethyl)-6-fluorophenyl]-6-(oxolan-3-yl)-2,5-dihydro-4H-pyrazolo [3,4-d]pyrimidin-4-one] | – | < 4.52 | 104 | –
COc1nc2nn(-c3c(C)cc(C)cc3O)cc2c(=O)[nH]1 [Example 3, 2-(2-hydroxy-4,6-dimethylphenyl)-6-methoxy-2,5-dihydro-4H-pyrazolo[3,4-d]pyrimidin-4-one] | 94 | < 4.52 | – | –
Cc1cc(C)c(-n2cc3c(=O)[nH]c(OCCN(C)C)nc3n2)c(O)c1 [Example 50, 6-[2-(dimethylamino)ethoxy]-2-(2-hydroxy-4,6-dimethylphenyl)-2,5-dihydro-4H-pyrazolo[3,4-d]pyrimidin-4-one] | 101 | < 4.52 | – | –
O=c1[nH]c(COC(F)F)nc2nn(-c3c(F)cc(C4CC4)cc3C(F)F)cc12 [Example 302, 2-[4-cyclopropyl-2-(difluoromethyl)-6-fluorophenyl]-6-[(difluoromethoxy)methyl]-2,5-dihydro-4H-pyrazolo[3,4-d]pyrimidin-4-one] | – | < 4.52 | 96 | –
COC(C)(C)c1nc2nn(-c3c(C)cc(C)cc3O)cc2c(=O)[nH]1 [Example 85, 2-(2-hydroxy-4,6-dimethylphenyl)-6-(2-methoxypropan-2-yl)-2,5-dihydro-4H-pyrazolo[3,4-d]pyrimidin-4-one] | 92 | < 4.52 | – | –
CCOc1nc2nn(-c3ccc(C)cc3OCC(F)F)cc2c(=O)[nH]1 [Example 98, 2-[2-(2,2-difluoroethoxy)-4-methylphenyl]-6-ethoxy-2,5-dihydro-4H-pyrazolo[3,4-d]pyrimidin-4-one] | 44 | < 4.52 | – | –
CCOc1nc2nn(-c3c(F)cc(C4CC4)cc3F)cc2c(=O)[nH]1 [Example 103, 2-(4-cyclopropyl-2,6-difluorophenyl)-6-ethoxy-2,5-dihydro-4H-pyrazolo[3,4-d]pyrimidin-4-one] | 97 | < 4.52 | – | –
CCOc1nc2nn(-c3c(C)cc(C4CC4)cc3C)cc2c(=O)n1C [Example 141, 2-(4-cyclopropyl-2,6-dimethylphenyl)-6-ethoxy-5-methyl-2,5-dihydro-4H-pyrazolo[3,4-d]pyrimidin-4-one] | – | < 4.52 | – | 95
